Patent publication EP1493444A1, “Pharmaceutical composition used as anti-infective of the upper respiratory tract” (priority 2003, dated 2005)

System: muqueuse
Assay: Comparative acute in vivo toxicity (mucosal irritation, C20)
Set-up: species or system lapin
Conditions: for concentration théorique provoquant une irritation de la muqueuse moyenne identique (C20): rabbit, in vivo
Excerpt: Enfin, une autre expérience a encore consisté à comparer la toxicité aiguë in vivo du polihexanide avec celle d'autres composés.
A cet effet, la toxicité du polihexanide a été comparée in vivo chez le lapin à celle du digluconate de chlorhexidine, et à celle de trois chlorures de benzyldiméthylalkylammonium.
Pour chacune des substances étudiées, une concentration théorique provoquant une irritation de la muqueuse moyenne identique (C20) a été déterminée.
Ces concentrations sont respectivement : • 0,25 g % pour le chlorure de benzalkonium • 0,28 g % pour le chlorure de benzyldiméthyldodecylammonium • 0,32 g % pour le chlorure de benzyldiméthylhexadecylanmonium • 0,54 g % pour le digluconate de chlorhexidine • 12,2 g % pour le polihexanide.
Ces valeurs montrent par conséquent, que le polihexanide est beaucoup moins toxique pour la muqueuse que les autres composés testés, puisque sa valeur C20 est 22 fois supérieure à celle de la chlorhexidine et 44 fois plus élevée que la valeur moyenne des chlorures de benzalkonium.

Row | Compound | concentration théorique provoquant une irritation de la muqueuse moyenne identique (C20) | valeur C20 supérieure à celle de la chlorhexidine (ratio of C20 values, versus chlorhexidine) | valeur C20 plus élevée que la valeur moyenne des chlorures de benzalkonium (ratio of C20 values, versus the mean of the benzalkonium chlorides)
1 | CCCCCCCCCCCCC[N+](C)(C)Cc1ccccc1 [chlorure de benzalkonium] | 0,25 g % |  | 
2 | CCCCCCCCCCCC[N+](C)(C)Cc1ccccc1 [chlorure de benzyldiméthyldodecylammonium] | 0,28 g % |  | 
3 | CCCCCCCCCCCCCCCC[N+](C)(C)Cc1ccccc1 [chlorure de benzyldiméthylhexadecylanmonium] | 0,32 g % |  | 
4 | [H]/N=C(\N/C(=N/[H])NCCCCCCNC(=N)NC(=N)Nc1ccc(Cl)cc1)Nc1ccc(Cl)cc1 [digluconate de chlorhexidine] | 0,54 g % |  | 
5 | polihexanide | 12,2 g % | 22 fois | 44 fois
